# Measurements as given in paper PMC9510668 (Frontiers in Pharmacology, 2022).
# Like-named read-outs stand apart in the source and are kept apart here.
# Columns and labels:
# [1] = test system: UGT1A1; conditions: ref Xu et al., 2010; cited from earlier work
# [2] = Physicochemical parameters (literature / model input); conditions: mean value of literature values, used in the model
# [3] = test system: OCT1; set-up: method as in Ellawatty et al., 2018; conditions: ref Ellawatty et al., 2018; cited from earlier work
# [4] = ref Verheijen et al., 2017, cited from earlier work
# [5] = Equilibrium solubility in pH buffers and biorelevant media; type: physicochemical
# Protocol: (§1) After incubation of 2 h, 1 ml aliquot of each sample was withdrawn from the tube. The samples were filtered using a 0.22 μm filter, the first 0.8 ml was discarded, and the remaining 0.2 ml was analyzed by the HPLC. The specific experiments containing different conditions are as follows: • i) Solubility testing in simulated fasted and fed media
# Specifically, solubility media were prepared using different phosphate buffers. Media pH was adjusted to the required value (Table 1, target value) using KOH or H3PO4, which were equal to the pH value of gastrointestinal tract compartment in a fasted and fed state in humans, respectively. • ii) Biorelevant solubility
# [6] = test system: OATP1B1; conditions: ref Xu et al., 2010; cited from earlier work
# [7] = ref Food and Drug Administration, 2009, cited from earlier work
# [8] = cited from earlier work
# [9] = test system: MATE1; set-up: method as in Sauzay et al., 2016; conditions: ref Sauzay et al., 2016; cited from earlier work
# [10] = test system: Caco-2 cell; set-up: method as in Food and Drug Administration, 2009; conditions: ref Food and Drug Administration, 2009; cited from earlier work
# [11] = test system: BCRP1; experiment: BCRP1 efflux transport; type: in vitro ADME; conditions: calculated from literature data, PAZ 5 μM, 60-120 min; ref Minocha et al., 2012
# [12] = ref Fink, 2020; cited from earlier work
# [13] = test system: MATE2-K; set-up: method as in Sauzay et al., 2016; conditions: ref Sauzay et al., 2016; cited from earlier work
# [14] = test system: CYP2B6; conditions: ref Food and Drug Administration, 2009; Yamada et al., 2020; cited from earlier work
# [15] = test system: P-gp; set-up: method as in Minocha et al., 2012; Boudou-Rouquette et al., 2016; conditions: in vitro; ref Minocha et al., 2012; Boudou-Rouquette et al., 2016; cited from earlier work
# [16] = Effect of NaTC (bile salt) concentration on solubility; type: physicochemical; conditions: for solubility at 2 h: pH 5.5, read-out: Solubility at Fasted state
# Protocol: as §1
# In this experiment, a final pH of 5.5 was used, representing a mean front luminal pH at fed state.
# [17] = test system: OCT2; set-up: method as in Sauzay et al., 2016; conditions: ref Sauzay et al., 2016; cited from earlier work
# [18] = test system: CYP3A4; conditions: ref Food and Drug Administration, 2009; Yamada et al., 2020; cited from earlier work
# [19] = cited from earlier work; for Solubility: ref Herbrink et al., 2018; for LogP: 2022
# [20] = test system: BCRP1; set-up: method as in Minocha et al., 2012; Boudou-Rouquette et al., 2016; conditions: in vitro; ref Minocha et al., 2012; Boudou-Rouquette et al., 2016; cited from earlier work
smiles,measurement,setting,value
"Cc1ccc(Nc2nccc(N(C)c3ccc4c(C)n(C)nc4c3)n2)cc1S(N)(=O)=O [PAZ, pazopanib]",IC50,[1],1.2 µM
same,LogP,[2],3.49
same,Km,[3],3.47 µM
same,OCT1 Vmax,[3],530 pmol/min/mg protein
same,"fup, fraction of free drug in plasma",[4],"0.011% ([Verheijen et al., 2017])"
same,"fup, fraction of free drug in plasma",[4]; value used in the model,0.00011
same,solubility at 2 h,"[5]; 37 °C, pH 1.3, fassgf or other biorelevant, thermodynamic from solid, FaSSGF-PH1.3, read-out: Solubility (mean ± SD) at fasted state",436.1 ± 1 µg/mL
same,solubility at 2 h,"[5]; 37 °C, pH 4.5, fassgf or other biorelevant, thermodynamic from solid, FEDGAS-PH4.5, read-out: Solubility (mean ± SD) at fed state",147 ± 1.9 µg/mL
same,solubility at 2 h,"[5]; 37 °C, pH 5.8, thermodynamic from solid, FeSSIF-V2-PH5.8, read-out: Solubility (mean ± SD) at fed state",6.5 ± 1.3 µg/mL
same,solubility at 2 h,"[5]; FEGGAS medium, 37 °C, fassgf or other biorelevant, thermodynamic from solid, fed state, used for food simulation, read-out: Mean value of the three solubility in the FEGGAS medium",167 µg/mL
same,Solubility (mean ± SD) at fed state,[5]; PH7.0,N (Not detected (below the detection limit))
same,Solubility (mean ± SD) at fed state,[5]; PH7.5,N (Not detected (below the detection limit))
same,solubility at 2 h,"[5]; pH 3, FEDGAS-PH3.0, read-out: Solubility (mean ± SD) at fed state",322.7 ± 2.6 µg/mL
same,solubility at 2 h,"[5]; pH 4.78, FaSSGF-PH4.78 (elevated gastric pH after esomeprazole), read-out: Solubility (mean ± SD) at fasted state",46.1 ± 3.4 µg/mL
same,solubility at 2 h,"[5]; pH 4.9, FEDGAS-PH4.9, read-out: Solubility (mean ± SD) at fed state",40 ± 0.7 µg/mL
same,solubility at 2 h,"[5]; pH 6.5, FaSSIF-V2-PH6.5, read-out: Solubility (mean ± SD) at fasted state",0.63 ± 0.18 µg/mL
same,Solubility,[5]; pH ≥ 7.0,cannot even be detected
same,solubility at 2 h,"[5]; phosphate buffer, 37 °C, pH 3, aqueous buffer, thermodynamic from solid, PH3.0, read-out: Solubility (mean ± SD) at fasted state",391 ± 4.6 µg/mL
same,solubility at 2 h,"[5]; phosphate buffer, 37 °C, pH 4.5, aqueous buffer, thermodynamic from solid, PH4.5, read-out: Solubility (mean ± SD) at fasted state",68.3 ± 3.3 µg/mL
same,solubility at 2 h,"[5]; phosphate buffer, 37 °C, pH 5, aqueous buffer, thermodynamic from solid, PH5.0, read-out: Solubility (mean ± SD) at fasted state",24.2 ± 2.3 µg/mL
same,solubility at 2 h,"[5]; phosphate buffer, 37 °C, pH 6, aqueous buffer, thermodynamic from solid, PH6.0, read-out: Solubility (mean ± SD) at fasted state",7.6 ± 0.6 µg/mL
same,solubility at 2 h,"[5]; phosphate buffer, 37 °C, pH 7, aqueous buffer, thermodynamic from solid, PH7.0, read-out: Solubility (mean ± SD) at fasted state",< 0.27 µg/mL
same,solubility at 2 h,"[5]; phosphate buffer, 37 °C, pH 7.5, aqueous buffer, thermodynamic from solid, PH7.5, read-out: Solubility (mean ± SD) at fasted state",< 0.27 µg/mL
same,solubility at 2 h,"[5]; phosphate buffer, pH 2, PH2.0, read-out: Solubility (mean ± SD) at fasted state",263.9 ± 1.1 µg/mL
same,IC50,[6],0.79 µM
same,Incidence of high blood pressure,[7]; Ctrough above 32 μg/ml,~80%
same,Probability of ALT elevation,[7]; Ctrough above approximately 56 μg/ml,~20%
same,Cmax threshold of clinical exposure-toxicity,[7],less than 56 μg/ml
same,Ctrough needed for sufficient clinical response,[7],above 15 μg/ml
same,Ctrough threshold of clinical exposure-toxicity,[7],< 32000 ng/mL
same,Mean oral bioavailability,"[8]; oral 800 mg dose in humans, ref Deng et al., 2013",approximately 21.4%
same,"Elimination via feces, administered radioactivity dose","[8]; ref Deng et al., 2013",approximately 82.2%
same,"Elimination via feces, unchanged drug","[8]; ref Deng et al., 2013",67%
same,"Renal elimination, of the administered dose","[8]; ref Deng et al., 2013",approximately 2.6%
same,Higher bioavailability of 400 mg dose than 800 mg dose,"[8]; ref Food and Drug Administration, 2009",40%
same,Ki,[9],1.7 µM
same,"Papp, Caco-2 cell permeability",[10],16.9 ✕10^−6 cm⋅s^−1
same,BCRP1 Vmax,[11],2.5 pmol/min
same,Permeability,[12],highly permeable
same,Ki,[13],3.3 µM
same,Inducer of CYP2B6,[14],moderate inducer
same,Substrate for efflux transporter P-gp,[15],weak substrate
same,Increase of solubility with NaTC,[16]; 15 mM compared with 30 mM NaTC,about 4 fold
same,solubility at 2 h,"[16]; biorelevant medium with sodium taurocholate (NaTC), 37 °C, pH 5.5, fassgf or other biorelevant, thermodynamic from solid, NaTC 3.75 mM",1.51 µg/mL
same,solubility at 2 h,"[16]; biorelevant medium with sodium taurocholate (NaTC), 37 °C, pH 5.5, fassgf or other biorelevant, thermodynamic from solid, NaTC 15 mM",6.93 µg/mL
same,solubility at 2 h,"[16]; biorelevant medium with sodium taurocholate (NaTC), 37 °C, pH 5.5, fassgf or other biorelevant, thermodynamic from solid, NaTC 30 mM",27.9 µg/mL
same,solubility at 2 h,"[16]; biorelevant medium with sodium taurocholate (NaTC), pH 5.5, NaTC 7.5 mM",3.02 µg/mL
same,solubility at 2 h,"[16]; medium with 0 mM NaTC, 37 °C, pH 5.5, fassgf or other biorelevant, thermodynamic from solid, NaTC 0 mM",0.36 µg/mL
same,Ki,[17],3 µM
same,Inhibitor of CYP3A4,[18],weak inhibitor
same,Solubility,[19]; above pH 4.0,practically insoluble
same,Solubility,[19]; pH = 1.0,very slight solubility
same,Biopharmaceutics Classification System (BCS) class,"[19]; ref Evaluation, 1997",class II
same,LogP,[19]; ref Krens et al.,3.33
same,LogP,[19]; ref PMDA,3.65
same,Substrate for BCRP1,[20],moderate substrate
